Reference: ChEMBL document CHEMBL1926678, “Synthesis and bio-evaluation of human macrophage migration inhibitory factor inhibitor to develop anti-inflammatory agent” (Bioorg Med Chem, 2011)
pIC50: −log10 of the molar value. The source made the active and inactive calls. The calls are words filed in the database; no cut-off is given here.

Key:
[1] = target: Macrophage migration inhibitory factor (Mus musculus) (UniProt P34884); test: Inhibition of MIF-induced NF-kappaB nuclear translocation in mouse RAW264.7 cells at 100 uM pretreated for 30 mins before […] stimulation measured after 2 hrs by autoradiography; assay type: cell-based
[2] = target: T1, Macrophage migration inhibitory factor (Homo sapiens, UniProt P14174); test: Inhibition of human cloned MIF tautomerase activity expressed in Escherichia coli assessed as conversion of L-dopachrome methyl ester to indolecarboxylic acid methyl ester measured for 20 secs
T1 sequence (P14174 whole entry): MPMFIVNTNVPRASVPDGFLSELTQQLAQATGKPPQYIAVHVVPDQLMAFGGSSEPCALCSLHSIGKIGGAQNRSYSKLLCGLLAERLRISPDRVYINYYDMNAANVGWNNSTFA

[3] = target: Macrophage migration inhibitory factor (Mus musculus) (UniProt P34884); test: Inhibition of MIF-induced NF-kappaB nuclear translocation in mouse RAW264.7 cells assessed as reduction in complex formation at 40 to 80 uM pretreated for 30 mins measured after 4 hrs by electrophoretic mobility shift assay; assay type: cell-based
[4] = target: Macrophage migration inhibitory factor (Mus musculus) (UniProt P34884); test: Inhibition of MIF-induced NF-kappaB nuclear translocation in mouse RAW264.7 cells assessed as reduction in complex formation pretreated for 30 mins measured after 4 hrs by electrophoretic mobility shift assay; assay type: cell-based
[5] = target: Macrophage migration inhibitory factor (Mus musculus) (UniProt P34884); test: Inhibition of MIF-induced NF-kappaB nuclear translocation in mouse RAW264.7 cells assessed as inhibition of iNOS expression at 50 uM pretreated for 30 mins measured after 24 hrs by fluorescence spectrophotometry; assay type: cell-based
[6] = target: Macrophage migration inhibitory factor (Mus musculus) (UniProt P34884); test: Inhibition of MIF-induced nitric oxide production in mouse RAW264.7 cells at 50 uM pretreatment by Griess assay; assay type: cell-based
RAW264.7 = test: Cytotoxicity against mouse RAW264.7 cells assessed as cell viability at 200 uM after 24 hrs by MTT assay; assay type: cell-based; conditions: raw264.7, 24 h
[7] = Cytotoxicity against rat gastric mucosal cells assessed as cell viability at 200 uM after 24 hrs by MTT assay; assay type: cell-based, Gastric mucosa

Macrophage migration inhibitory factor (Mus musculus), sequence (P34884 2-115 limits assumed): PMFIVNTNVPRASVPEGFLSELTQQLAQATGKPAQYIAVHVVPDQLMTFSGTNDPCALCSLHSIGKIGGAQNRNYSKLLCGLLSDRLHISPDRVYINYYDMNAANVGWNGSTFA

Row | pIC50 [2] | Compound | also measured
1 |  | COC(=O)CC1CC(c2ccc(O)cc2)=NO1 (racemic) | inhibition [1]: 70%
2 | 4.99 | COc1cc(C2=NOC(CC(=O)O)C2)ccc1O (configuration not stated) | 
3 | 5.14 | COc1cc(C2=NOC(COc3ccc(C=O)cc3)C2)ccc1O (configuration not stated) | inhibition [3]: 100%; inhibition [4]: Dose-dependent effect; inhibition [5]: Active; inhibition [6]: Active; Activity (RAW264.7): Non-toxic; Activity [7]: Non-toxic
4 | 4.71 | COC(=O)CC1CC(c2ccc(OC)cc2)=NO1 (configuration not stated) | 
5 | 4.60 | COC(=O)C1CC(c2ccc(OC)c(OC)c2)=NO1 (configuration not stated) | 
6 | 4.95 | CCCCOC(=O)CC1CC(c2ccc(OC)cc2)=NO1 (configuration not stated) | 
7 | 4.78 | COc1ccc(C2=NOC(CC(=O)O)C2)cc1 (configuration not stated) | 
8 | 4.45 | COc1ccc(C2=NOC(C(C)=O)C2)cc1OC (configuration not stated) | 
9 | 4.26 | COc1ccc(C2=NOC(CC(=O)Oc3cc(C)ccc3C(C)C)C2)cc1 (configuration not stated) | 
10 | 4.82 | O=C(O)CC1CC(c2ccc(O)cc2)=NO1 (configuration not stated) | 
11 | 4.43 | COC(=O)CC1CC(c2ccc(OC(=O)CC3CC(c4ccc(OC)cc4)=NO3)cc2)=NO1 (configuration not stated) | 
